# Results: patent US20260091026A1, “METHODS OF TREATING INFLAMMATORY DISEASES” (INTERLINE THERAPEUTICS, INC., priority 2023, published 2026)
# Like-named read-outs stand apart in the source and are kept apart here.
# Tests used:
# [1] = molecular target: T1, GST-RIPK2 fusion protein (human RIPK2 amino acids 1-310) (Homo sapiens, UniProt O43353); assay: RIPK2 binding competition assay (TR-FRET, Tracer 199); settings: displacement of Tracer 199 (10 nM), 45 min at 22° C.
# T1 construct: made in house; host or cells: baculovirus-infected Sf9 cells
# T1 sequence (O43353 1-310): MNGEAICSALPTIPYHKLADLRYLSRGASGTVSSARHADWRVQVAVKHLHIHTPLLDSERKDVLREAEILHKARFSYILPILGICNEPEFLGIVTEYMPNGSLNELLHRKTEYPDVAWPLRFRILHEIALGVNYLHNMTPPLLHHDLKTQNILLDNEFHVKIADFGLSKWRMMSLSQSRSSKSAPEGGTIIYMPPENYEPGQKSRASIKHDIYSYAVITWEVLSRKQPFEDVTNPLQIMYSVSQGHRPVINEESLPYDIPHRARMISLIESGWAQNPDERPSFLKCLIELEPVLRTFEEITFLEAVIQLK
# Excerpt: The ability of selected compounds of Formulas (I) and (II) to inhibit the binding of an Alexa647-labelled ATP-competitive kinase inhibitor to a GST-RIPK2 fusion protein was quantified employing the TR-FRET-based RIPK2 binding competition assay as described in the following paragraphs.
# Recombinant fusion protein of N-terminal Glutathione-S-Transferase (GST) and a fragment of human RIPK2 (amino acids 1-310 of accession number 043353), expressed in baculovirus infected Sf9 cells, purified via glutathione affinity chromatography, was used as GST-RIPK2 fusion protein. Tracer 199 from Life Technologies (catalogue no. PR9115B) was used as Alexa647-labelled ATP-competitive kinase inhibitor.
# For the assay, 50 nL of a 100-fold concentrated solution of each test compound in DMSO was pipetted into either a black low volume 384-well microtiter plate or a black 1536-well microtiter plate (both Greiner Bio-One, Frickenhausen, Germany), 3 μL solution of Tracer 199 (16.7 nM=>final concentration in 5 μL assay volume is 10 nM) in aqueous assay buffer (25 mM Tris/HCl pH 7.5, 10 mM magnesium chloride (MgCl2), 5 mM β-glycerophosphate, 2.5 mM dithiothreitol (DTT), 0.5 mM ethylene glycol-bis(2-aminoethylether)-N,N,N′,N′-tetraacetic acid (EGTA), 0.5 mM sodium ortho-vanadate, 0.01% (w/v) bovine serum albumin (BSA), 0.005% (w/v) Pluronic F-127 (Sigma)) were added. Then the binding competition was started by the addition of 2 μL of a solution of the GST-RIPK2 fusion protein (2.5 nM=>final conc. in the 5 μL assay volume is 1 nM) and of Anti-GST-Tb (1.25 nM=>final conc. in the 5 μL assay volume is 0.5 nM), a Lumi4®—Tb cryptate-conjugated anti-GST antibody from PerkinElmer (catalogue no 61GSTTAH), in assay buffer.
# The resulting mixture was incubated 45 min at 22° C. to allow the formation of a complex between the Tracer 199, the fusion protein and Anti-GST-Tb. Subsequently, the amount of this complex was evaluated by measurement of the resonance energy transfer from the Tb-cryptate to the Tracer 199. Therefore, the fluorescence emissions at 620 nm and 665 nm after excitation at 337 nm were measured in a TR-FRET reader, e.g. a Pherastar FS(BMG Labtechnologies, Offenburg, Germany) or a Viewlux (PerkinElmer). The ratio of the emissions at 665 nm and at 620 nm was taken as the measure of the amount of the complex. The data were normalized (assay reaction without inhibitor=0% activity, all other assay components but no GST-RIPK2 fusion protein=−100% activity).
# RIPK2 (KD)/XIAP (BIR2) = molecular target: T2, RIPK2 (KD)/XIAP (BIR2) (Homo sapiens, UniProt O43353); assay: RIPK2-XIAP binding competition PPI assay (TR-FRET); settings: for Emax: read-out: PPI Amax; for IC50: GST-RIPK2 / His-XIAP (BIR2)-avi, 120 min at 23° C.
# T2 construct: made in house; host or cells: baculovirus-infected Sf9 cells
# T2 sequence (O43353 1-310): as above
# Summary of the method: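 TR-FRET competition between GST-RIPK2 (aa 1-310, 1 nM) and His-XIAP BIR2-avi (aa 152-231, 25 nM), both Sf9-expressed, detected with anti-His-XL665 and anti-GST-Tb in Tris pH 7.5 buffer with MgCl2, DTT and vanadate. Incubation was 120 min at 23 °C; the 665/520 nm ratio was normalized to no inhibitor (0%) and 50 nM GSK583 (−100%).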
# [2] = system: THP1-Dual cells, NF-κB pathway (SEAP); assay: THP-1 Dual cell SEAP assay (L18-MDP stimulated); assay type: cell-based; settings: 10 ng/mL L18-MDP, 20-24 h, SEAP readout, read-out: IFNγ THP1 IC50
# Summary of the method: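 About 25,000 THP1-Dual cells per well were preincubated 30 min with serially diluted compound, then stimulated overnight (20-24 h, 37 °C) with 10 ng/mL L18-MDP (final). NF-κB-driven SEAP in supernatant was read with QUANTI-Blue at OD 620-655 nm after 2 h; % inhibition versus DMSO/L18-MDP wells was fitted by non-linear regression to give IC50.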
# [3] = 50 nM of GSK583 = -100% activity
Structure (SMILES),IC50 [1] [nM],Emax (RIPK2 (KD)/XIAP (BIR2); [3]) [%],IC50 (RIPK2 (KD)/XIAP (BIR2)) [nM],IC50 ([2]; Homo sapiens) [nM],PPI Amax (RIPK2 (KD)/XIAP (BIR2); [3]),IC50 [2] [nM]
"COc1cc2ncc(-n3cc(N4CCC5(CCCCC5)C4=O)cn3)n2cc1S(=O)(=O)C(C)(C)C [Example 181, 2-(1-(6-(tert-butylsulfonyl)-7-methoxyimidazo[1,2-a]pyridin-3-yl)-1H-pyrazol-4-yl)-2-azaspiro[4.5]decan-1-one]",> 1000,30 to 55,> 1000,> 2500,–,–
"COc1cc2ncc(-n3cc(NC(=O)C4(C)CCCCC4)cn3)n2cc1S(=O)(=O)C(C)(C)C [Example 175, N-(1-(6-(tert-butylsulfonyl)-7-methoxyimidazo[1,2-a]pyridin-3-yl)-1H-pyrazol-4-yl)-1-methylcyclohexane-1-carboxamide]",> 1000,55 to 80,> 1000,> 2500,–,–
"COc1cc2ncc(-n3cc(NC(=O)OC(C)(C)C)cn3)n2cc1S(=O)(=O)C(C)(C)C [Example 154, tert-butyl (1-(6-(tert-butylsulfonyl)-7-methoxyimidazo[1,2-a]pyridin-3-yl)-1H-pyrazol-4-yl)carbamate]",500 to 1000,≥ 80,> 1000,> 2500,–,–
"COc1cc2ncc(-c3cc(NC(=O)C4(F)CCCCC4)n(C)n3)n2cc1S(=O)(=O)C(C)(C)C [Example 176, N-(3-(6-(tert-butylsulfonyl)-7-methoxyimidazo[1,2-a]pyridin-3-yl)-1-methyl-1H-pyrazol-5-yl)-1-fluorocyclohexane-1-carboxamide]",< 200,≥ 80,100 to 1000,500 to 2500,–,–
"COc1cc2ncc(-n3cc(NC(=O)[C@@H](c4ccccc4)N(C)C)cn3)n2cc1S(=O)(=O)C(C)(C)C [Example 166, (R)-N-(1-(6-(tert-butylsulfonyl)-7-methoxyimidazo[1,2-a]pyridin-3-yl)-1H-pyrazol-4-yl)-2-(dimethylamino)-2-phenylacetamide]",> 1000,≥ 80,> 1000,> 2500,–,–
"COc1cc2ncc(-n3cc(C(=O)NCc4c(F)cc(F)cc4F)cn3)n2cc1S(=O)(=O)C(C)(C)C [Example 3, 1-(6-(tert-butylsulfonyl)-7-methoxyimidazo [1,2-a]pyridin-3-yl)-N-(2,4,6-trifluorobenzyl)-1H-pyrazole-4-carboxamide]",> 1000,30 to 55,> 1000,> 2500,–,–
"COc1cc2ncc(-n3cc(NC(=O)Cc4ccccc4)cn3)n2cc1S(=O)(=O)C(C)(C)C [Example 160, N-(1-(6-(tert-butylsulfonyl)-7-methoxyimidazo[1,2-a]pyridin-3-yl)-1H-pyrazol-4-yl)-2-phenylacetamide]",200 to 500,≥ 80,100 to 1000,> 2500,–,–
"COc1cc2ncc(-c3cc(NC(=O)Cc4ccccc4Cl)n(C)n3)n2cc1S(=O)(=O)C(C)(C)C [Example 185, N-(3-(6-(tert-butylsulfonyl)-7-methoxyimidazo[1,2-a]pyridin-3-yl)-1-methyl-1H-pyrazol-5-yl)-2-(2-chlorophenyl)acetamide]",< 200,≥ 80,10 to 100,500 to 2500,–,–
"COc1cc2ncc(-n3cc(NC(=O)Cc4cccc(F)c4Cl)cn3)n2cc1S(=O)(=O)C(C)(C)C [Example 156, N-(1-(6-(tert-butylsulfonyl)-7-methoxyimidazo[1,2-a]pyridin-3-yl)-1H-pyrazol-4-yl)-2-(2-chloro-3-fluorophenyl)acetamide]",500 to 1000,≥ 80,> 1000,> 2500,–,–
"COc1cc2ncc(-n3cc(NC(=O)[C@H]4CC[C@@H](O)CC4)cn3)n2cc1S(=O)(=O)C(C)(C)C [Example 172, (1s,4s)-N-(1-(6-(tert-butylsulfonyl)-7-methoxyimidazo[1,2-a]pyridin-3-yl)-1H-pyrazol-4-yl)-4-hydroxycyclohexane-1-carboxamide]",> 1000,30 to 55,> 1000,> 2500,–,–
"COc1cc2ncc(-n3cc(NC(=O)Cc4cc(F)ccc4Cl)cn3)n2cc1S(=O)(=O)C(C)(C)C [Example 157, N-(1-(6-(tert-butylsulfonyl)-7-methoxyimidazo[1,2-a]pyridin-3-yl)-1H-pyrazol-4-yl)-2-(2-chloro-5-fluorophenyl)acetamide]",500 to 1000,≥ 80,> 1000,> 2500,–,–
"COc1cc2ncc(-n3cc(C(=O)NCc4ccccc4Cl)cn3)n2cc1S(=O)(=O)C(C)(C)C [Example 2, 1-(6-(tert-butylsulfonyl)-7-methoxyimidazo [1,2-a]pyridin-3-yl)-N-(2-chlorobenzyl)-1H-pyrazole-4-carboxamide]",200 to 500,≥ 80,100 to 1000,> 2500,–,–
"CN1CCC(Nc2cncc(-c3cc(NC(=O)Cc4ccccc4Cl)n(C)n3)c2)CC1 [Example 184, 2-(2-chlorophenyl)-N-(1-methyl-3-(5-((1-methylpiperidin-4-yl)amino)pyridin-3-yl)-1H-pyrazol-5-yl) acetamide]",< 200,≥ 80,100 to 1000,> 2500,–,–
"COc1cc2ncc(-n3cc(N4CCC(c5ccccc5)C4=O)cn3)n2cc1S(=O)(=O)C(C)(C)C (single isomer, unassigned) [Example 183, (S)- or (R)-1-(1-(6-(tert-butylsulfonyl)-7-methoxy-imidazo[1,2-a]pyridin-3-yl)-1H-pyrazol-4-yl)-3-phenylpyrrolidin-2-one]",> 1000,–,> 1000,–,A (Amax of ≥80%),> 2500
"COc1cc2ncc(-c3cc(NC(=O)Cc4ccccc4Cl)n(C)n3)n2cc1C1(F)CCN(C)CC1 [Example 186, 2-(2-chlorophenyl)-N-(3-(6-(4-fluoro-1-methylpiperidin-4-yl)-7-methoxyimidazo[1,2-a]pyridin-3-yl)-1-methyl-1H-pyrazol-5-yl)acetamide]",< 200,≥ 80,10 to 100,500 to 2500,–,–
"COc1cc2ncc(-n3cc(NC(=O)Cc4c(F)cccc4Cl)cn3)n2cc1S(=O)(=O)C(C)(C)C [Example 159, N-(1-(6-(tert-butylsulfonyl)-7-methoxyimidazo[1,2-a]pyridin-3-yl)-1H-pyrazol-4-yl)-2-(2-chloro-6-fluorophenyl)acetamide]",< 200,≥ 80,100 to 1000,500 to 2500,–,–
"COc1cc2ncc(-n3cc(NC(=O)OC(C)(C)C)cn3)n2cc1SC(C)(C)C [Example 153, tert-butyl (1-(6-(tert-butylthio)-7-methoxyimidazo[1,2-a]pyridin-3-yl)-1H-pyrazol-4-yl)carbamate]",200 to 500,≥ 80,> 1000,> 2500,–,–
"COc1cc2ncc(-n3cc(NC(=O)C4(F)CCC5(CC5)CC4)cn3)n2cc1S(=O)(=O)C(C)(C)C [Example 174, N-(1-(6-(tert-butylsulfonyl)-7-methoxyimidazo[1,2-a]pyridin-3-yl)-1H-pyrazol-4-yl)-6-fluorospiro[2.5]octane-6-carboxamide]",500 to 1000,≥ 80,> 1000,> 2500,–,–
COc1ccn2ncc(-c3cc(NC(=O)C4(F)CCCCC4)n(CCO)n3)c2n1 [compound 194],> 1000,≤ 30,> 1000,> 2500,–,–
